Where “and” joins values, the source holds several entries; their conditions need not be identical. Equal entries are not always repeated.

The nature of the series: solvent given as SMILES.

For `O=c1c2cc(F)c(O)cc2oc2cc(N3CCCCC3)c(F)cc12`, the absorption maximum (in CCO) is on record as 373 nm.
As for `CCCCCCCCC1(CCCCCCCC)c2cc(-c3ccc(C#N)cc3)ccc2-c2ccc(-c3ccc(C#N)cc3)cc21`, the absorption maximum (in ClC(Cl)Cl) was 341 nm.
Take `CCOC(=O)COc1ccc(C(c2c(C)[nH]c3ccccc23)c2c(C)[nH]c3ccccc23)cc1`: the absorption maximum runs as follows: (in C1CCCCC1) 291 nm; (in CC#N) 290 nm; (in CO) 290 nm; (in O) 289 nm.
`CN(c1ccccc1)c1ccc(/C=C2\C(=O)c3ccccc3S2(=O)=O)cc1` came in with an absorption maximum (in C1CCOC1) of 468 nm; an absorption maximum (in C1COCCO1) of 466 nm; an absorption maximum (in CC#N) of 471 nm; an absorption maximum (in CC(C)=O) of 470 nm; an absorption maximum (in CCOC(C)=O) of 465 nm; an absorption maximum (in CN(C)C=O) of 478 nm. Moreover, the absorption maximum by setting is: (in CO) 475 nm; (in CS(C)=O) 483 nm; (in Cc1ccccc1) 472 nm; (in ClC(Cl)Cl) 479 nm; (in ClCCl) 476 nm.
With `CCCCCCOc1cc(C=O)c(OCCCCCC)cc1C=O`, the absorption maximum (in ClCCl) came out at 403 nm.
`CN(CCO)c1ccc(/N=N/c2ccc([N+](=O)[O-])cc2)cc1` gave an absorption maximum (in CO) of 487 nm, an absorption maximum (in OCC(O)CO) of 509 nm, an absorption maximum (in OCCO) of 498 nm and an absorption maximum (in Oc1ccccc1) of 548 nm.
As to `Cc1cc(-c2nc(-c3ccccc3)nc(-c3ccccc3)n2)ccc1N1c2ccccc2[Si](c2ccccc2)(c2ccccc2)c2ccccc21`, the absorption maximum (in Cc1ccccc1) was found to be 379.03 nm.
Consider `C(S/C=C/c1ccc(-c2ccc(/C=C/SC=C3CCCCCC3)cc2)cc1)=C1CCCCCC1`, for which the absorption maximum (in ClCCl) was 353 nm.
On to `O=C(/C=C/c1cn(-c2ccccc2)nc1-c1ccccc1)c1c(O)c2ccccc2oc1=O`, for which the absorption maximum is, setting by setting: (in C1CCOC1) 406 nm; (in C1COCCO1) 405 nm; (in CCO) 400 nm; (in CCOC(C)=O) 402 nm; (in CN(C)C=O) 381 nm; (in CO) 352 nm. Moreover, the absorption maximum by setting is: (in CS(C)=O) 401 nm; (in Cc1ccccc1) 409 nm; (in ClC(Cl)Cl) 405 nm; (in ClCCl) 404 nm.
Regarding `CC(C)c1cc(C(C)C)c(B2c3cc(N4c5ccccc5Oc5ccccc54)ccc3N(c3ccccc3)c3ccc(N4c5ccccc5Oc5ccccc54)cc32)c(C(C)C)c1`, under “in C1CCCCC1”, the absorption maximum was determined as 372.79 nm.
In the case of `COc1ccc(C2=[N+]3C(=Nc4c(-c5ccccc5-c5ccc(C(C)(C)C)cc5)cc(-c5ccc(OC)cc5)n4[B-]3(F)F)c3c2c2cc(C(C)(C)C)ccc2c2ccccc32)cc1`, under “in Cc1ccccc1”, the absorption maximum amounted to 701 nm.
The compound `C#Cn1c(-c2cc(-c3nc4ccc(C)cc4n3C#C)cc(-c3nc4ccc(C)cc4n3C#C)c2)nc2ccc(C)cc21` gave an absorption maximum (in ClCCl) of 306.5 nm.
As for `CCN(CC)c1ccc2cc(C#N)/c(=N\C(=O)c3ccc(C)cc3)oc2c1`, the absorption maximum is listed as 430 nm (in CCO) and 436 nm (in ClCCl).
For `O=c1ccc2ccccc2o1`, the absorption maximum (in O) amounted to 306 nm.
Where the note is “in Cc1ccccc1”, `CC1(C)c2ccccc2N(c2ccccc2)c2ccc(-c3ccc(C(=O)c4ccc(-c5ccc6c(c5)C(C)(C)c5ccccc5N6c5ccccc5)cc4)cc3)cc21` had an absorption maximum of 377.59 nm.
Take `C(#Cc1ccncc1)C(C#Cc1ccncc1)=Cc1ccc(C=C(C#Cc2ccncc2)C#Cc2ccncc2)s1`: the absorption maximum (in ClC(Cl)Cl) was determined as 522 nm.
For the compound `C(=C\c1ccnc(/C=C/c2ccc(N(c3ccccc3)c3ccccc3)cc2)n1)/c1ccc(N(c2ccccc2)c2ccccc2)cc1`, the absorption maximum (in ClCCl) is on record as 402 nm.
Same read-out and setting: to `COC(=O)c1ccc(C2=C3C=c4sc(-c5cccs5)cc4=[N+]3[B-](F)(F)n3c2cc2sc(-c4cccs4)cc23)cc1` belongs 684 nm.
For `COC(=O)c1c(C(=O)OC)c2ccc(C)nn2c1C`, the absorption maximum (in C1CCCCC1) came to 380.4 nm.
Compound `CN(C)c1ccc(/C=C/C(=O)c2ccc(Cl)cc2)cc1` displayed an absorption maximum (in C1CCOC1) of 413 nm; an absorption maximum (in CC#N) of 419 nm; an absorption maximum (in CC(=O)O) of 430 nm; an absorption maximum (in CC(C)=O) of 418 nm; an absorption maximum (in CCO) of 429 nm; an absorption maximum (in CN(C)C=O) of 427 nm. Moreover, the absorption maximum is, setting by setting: (in CO) 428 nm; (in Cc1ccccc1) 416 nm; (in ClC(Cl)Cl) 426 nm; (in c1ccccc1) 420 nm.
`CC1=[N+]2C(=C(c3ccc(N(C)C)cc3)c3ccc(C)n3[B-]2(F)F)C=C1`: the absorption maximum by setting is: (in C1CCCCC1) 508 nm; (in C1CCOC1) 506 nm; (in CC#N) 503 nm; (in CC(=O)C(C)(C)C) 505 nm; (in CC(C)=O) 504 nm; (in CCCCCC) 507 nm. For the same compound, the absorption maximum was 505 nm and 504 nm (in CCOC(C)=O); 504 nm and 503 nm (in CO); 509 nm (in Cc1ccccc1); 509 nm (in ClC(Cl)Cl).
Turning to `CCn1c2ccccc2c2cc(-c3cc(-c4ccc5c(c4)c4ccccc4n5CC)nc(-c4ccc(C#N)cc4)n3)ccc21`, the absorption maximum runs as follows: (in C1CCOC1) 367 nm; (in CCOC(C)=O) 363 nm; (in CN(C)C=O) 370 nm; (in Cc1ccccc1) 366 nm; (in ClCCl) 365 nm.
As to `c1ccc(-c2nc3ccccc3nc2-c2ccc(-n3c4ccccc4c4ccccc43)cc2)cc1`, the absorption maximum (in Cc1ccccc1) was determined as 345 nm.
For the setting “in ClCCl”, `CC(C)(C)c1ccc2c(c1)c1cc(C(C)(C)C)ccc1n2-c1ccc(C#Cc2ccc(C=O)cc2)cc1` yielded an absorption maximum of 354 nm.
The same measure, in the same setting: to `CCCCCCCCCCCCN1C(=O)c2c(c3ccc4cc(-c5ccc(-c6ccccc6)cc5)c(OC)cc4c3c3c2ccc2cc(-c4ccc(-c5ccccc5)cc4)c(OC)cc23)C1=O` belongs 437 nm.
Regarding `CCN(CC)c1ccc2cc(/C=C/C3=CC(/C=C/c4cc5ccc(N(CC)CC)cc5oc4=O)=[O+][B-](F)(F)O3)c(=O)oc2c1`, the absorption maximum reads like this: (in CC#N) 630 nm; (in CC(C)=O) 620 nm; (in CCOC(C)=O) 604 nm; (in CN(C)C=O) 641 nm; (in CS(C)=O) 652 nm; (in Cc1ccccc1) 598 nm. Besides, the absorption maximum runs as follows: (in ClC(Cl)Cl) 615 nm; (in ClCCl) 625 nm.
`CCCCCCn1c2cc(C=O)sc2c2sc3c(sc4c5sc(C=O)cc5n(CCCCCC)c43)c21` registered an absorption maximum (in ClCCl) of 468 nm.
With `COc1ccccc1-c1nc2c3ccccc3c3ccccc3c2o1`, the absorption maximum (in Cc1ccccc1) was 364 nm.
Take `O=C1C=C(Nc2ccccc2)C(=O)c2ccccc21`: the absorption maximum was 450 nm (in CCCCCC) and 466 nm (in CO).
In turn, `CCCCOC(=O)c1cc(Oc2ccc(OC)cc2)c2c3c(Cl)cc4c5c(cc(Cl)c(c6c(Oc7ccc(OC)cc7)cc(C(=O)OCCCC)c1c26)c53)C(=O)N(c1c(C(C)C)cccc1C(C)C)C4=O` had an absorption maximum (in Cc1ccccc1) of 531 nm.
In the case of `O=c1c2cccc3cccc(c32)c2nc3cccc4cccc(c43)n12`, under “in ClCCl”, the absorption maximum was 475 nm.
Still for that read-out and setting: then `c1ccc(Cc2c3ccc(=[N+]4CCCCC4)cc-3oc3cc(N4CCCCC4)ccc23)cc1`, with 566 nm.
Consider `C/C(=C\c1ccc(Cl)cc1)c1nc2ccccc2s1`, for which the absorption maximum is 320 nm (in C1CCCCC1) and 320 nm (in CO).
For the compound `CCCCOc1ccc2cc(-c3ccc(C)cc3)c(=O)oc2c1`, the absorption maximum reads like this: (in C1CCOC1) 343 nm; (in CCCCCC) 338 nm; (in CCO) 344 nm; (in CS(C)=O) 346 nm.
Regarding `COc1cc(-c2nc3sc4ccccc4c3s2)cc(OC)c1OC`, for the setting “in CS(C)=O”, the absorption maximum is 358 nm.
As to `COCCOCCOCCOc1ccc(OCCOCCOCCOC)c(C=O)c1`, the absorption maximum reads like this: (in CC(C)(C)O) 349 nm; (in CC(C)CO) 349 nm; (in CC(C)O) 349 nm; (in CCCCO) 348 nm; (in CCCO) 348 nm; (in CCO) 348 nm. The compound also showed an absorption maximum (in CN(C)C=O) of 349 nm; an absorption maximum (in CNC=O) of 349 nm; an absorption maximum (in CO) of 348 nm; an absorption maximum (in NC=O) of 352 nm; an absorption maximum (in O) of 350 nm.
Consider `COc1ccc2c3c(cccc13)C(=O)c1ccccc1-2`, for which the absorption maximum came to 421.05 nm (in CC(C)=O); 412.03 nm (in CCCCOCCCC); 418.06 nm (in CCOC(C)=O); 414.08 nm (in CCOCC); 423.01 nm (in Clc1ccccc1); 421.94 nm (in O=C1CCCCC1).
`CCCCCCCC[n+]1ccc(-c2cc[n+](CCCCCCCC)cc2)cc1` yielded an absorption maximum (in CC#N) of 264 nm.
Where the note is “in O”, `CN(C)c1ccc2cc3ccc(N(C)C)cc3nc2c1` gave an absorption maximum of 500 nm.
`O=[N+]([O-])c1ccc(-n2c3ccccc3c3c2c2ccccc2n3-c2ccccc2)cc1` showed an absorption maximum (in Cc1ccccc1) of 418 nm.
Compound `C#Cc1ccc2cc(/C=C/C(=O)OCC)c(=O)oc2c1` registered an absorption maximum (in CCO) of 360 nm.
The compound `CCCN1c2ccccc2Sc2cc(/C=C\c3cc(=O)oc4cc(NC(=O)OCC)ccc34)ccc21` gave an absorption maximum (in ClC(Cl)Cl) of 422 nm.
Turning to `COc1cc(/C=C/c2nc(N3CCOCC3)c3c([n+]2[O-])CCCC3)cc(OC)c1OC`, the absorption maximum (in ClCCl) is 390 nm.
The same measure, in the same setting: to `Cc1cc(-c2cccc3ccccc23)cc(C)[o+]1` belongs 438 nm.

The values are drawn from the Deep4Chem optical property database.
